Some test systems named below: EKVX; SN12C; MDA-MB-435; UACC-62; SR; IGROV-1; MDA-MB-231; OVCAR-5; TK-10; U-251; HOP-62; HOP-92; SF-539; OVCAR-3; Hs-578T; CCRF-CEM; HCT-116; SW-620; A549; Malme-3M.
Holding throughout (test): inhibition of tumour cell growth, NCI panel, 48 h

SMILES strings stand for the structures.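 How tested: cells in 96-well plates exposed to compound for 48 hours at five concentrations. GI50 = concentration required for 50% inhibition of growth.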 The source made the active and inactive calls. No stated cut-off is given here; in the data, active = GI50 up to about 1.1 µM and inactive = higher.

Take `COC(=O)NC(Nc1ccc(C)cc1)(C(F)(F)F)C(F)(F)F`: the GI50 is > 100 µM (inactive) in the assay with EKVX; > 100 µM (inactive) in the assay on SN12C; > 100 µM (inactive) with MDA-MB-435; > 100 µM (inactive) in the assay with UACC-62; 61.2 µM (inactive) with SR; > 100 µM (inactive) with IGROV-1. The GI50 with MDA-MB-231, with OVCAR-5, in the assay with TK-10, with U-251, in the assay with HOP-62 and with HOP-92 was > 100 µM (inactive) in each case. The GI50 in the assay with SF-539, with OVCAR-3, in the assay on Hs-578T, in the assay with CCRF-CEM, in the assay with HCT-116 and with SW-620 was > 100 µM (inactive) throughout. Moreover, the GI50 in the assay with A549 and in the assay with Malme-3M was > 100 µM (inactive) each time.
As to `CO[C@H]1C[C@H](O[C@H]2CC[C@]3(C=O)[C@H]4CC[C@]5(C)[C@@H](C6=CC(=O)OC6)CC[C@]5(O)[C@@H]4CC[C@]3(O)C2)O[C@H](C)[C@H]1O[C@@H]1O[C@H](CO)[C@@H](O)[C@H](O)[C@H]1O`, the GI50 in the assay with EKVX is 7e-06 µM (active); with SN12C it was 1.05e-05 µM (active); in the assay on MDA-MB-435, 4.61e-05 µM (active); in the assay with UACC-62, 6.17e-05 µM (active); in the assay with SR, > 0.01 µM (active); with IGROV-1, > 0.01 µM (active). The GI50 with MDA-MB-231 was 0.000173 µM (active); in the assay with OVCAR-5, 3.52e-05 µM (active); in the assay with TK-10 it was 2.48e-05 µM (active); in the assay on U-251, 4.07e-05 µM (active); with HOP-62 it was 1.26e-05 µM (active); with HOP-92 it was 5.83e-05 µM (active). Moreover, the GI50 in the assay on SF-539 was 2.03e-05 µM (active); in the assay on OVCAR-3, 7.67e-06 µM (active); in the assay on Hs-578T it was > 0.01 µM (active); in the assay with CCRF-CEM, > 0.01 µM (active); in the assay with HCT-116, 9.73e-06 µM (active); in the assay with SW-620, 3.16e-05 µM (active). Moreover, the results for the GI50 with A549 and with Malme-3M were 4.46e-06 µM (active) and 2.7e-05 µM (active), respectively.
As to `CC(C)C1CSC2N1C(=O)C2(OCc1ccccc1)C1CC1` (stereo not given), the GI50 with EKVX, with SN12C, in the assay with MDA-MB-435, in the assay on UACC-62, in the assay on SR and with IGROV-1 was > 100 µM (inactive) in each case. Further, the GI50 in the assay on MDA-MB-231, in the assay on OVCAR-5, in the assay with TK-10, with U-251, in the assay on HOP-62 and with HOP-92 was > 100 µM (inactive) throughout. Further, the GI50 in the assay on SF-539, in the assay on OVCAR-3, in the assay with Hs-578T, with CCRF-CEM, in the assay on HCT-116 and with SW-620 was > 100 µM (inactive) each time. Further, the GI50 in the assay with A549 and with Malme-3M was > 100 µM (inactive) in each case.
For `COc1ccccc1C1Nn2c(nc3ccccc3c2=O)N1c1ccc(C)cc1` (stereo not given), the GI50 was 11.4 µM (inactive) in the assay on EKVX; 5.87 µM (inactive) with SN12C; 8.2 µM (inactive) in the assay with MDA-MB-435; 9.31 µM (inactive) in the assay with UACC-62; 1.38 µM (inactive) in the assay with SR; 6.34 µM (inactive) in the assay with IGROV-1. For the same molecule, the GI50 is 5.62 µM (inactive) in the assay with MDA-MB-231; 10.4 µM (inactive) in the assay with OVCAR-5; 6.41 µM (inactive) with TK-10; 2.04 µM (inactive) in the assay with U-251; 6.32 µM (inactive) in the assay on HOP-62; 10.4 µM (inactive) in the assay on HOP-92. Moreover, the GI50 was 3.51 µM (inactive) with SF-539; 4.65 µM (inactive) in the assay with OVCAR-3; 10 µM (inactive) in the assay on Hs-578T; 1.82 µM (inactive) with CCRF-CEM; 4.23 µM (inactive) with HCT-116; 5.28 µM (inactive) in the assay on SW-620. The GI50 with A549 was 6.19 µM (inactive); in the assay with Malme-3M, 14.4 µM (inactive).
Take `O/N=C1\CCc2cc3c(cc21)CCC3`: the GI50 in the assay with EKVX was 5.65 µM (inactive); in the assay on SN12C, > 100 µM (inactive); in the assay on MDA-MB-435, > 100 µM (inactive); with UACC-62, > 100 µM (inactive); in the assay with SR, > 100 µM (inactive); in the assay with IGROV-1, > 100 µM (inactive). Besides, the GI50 in the assay with MDA-MB-231 is > 100 µM (inactive); in the assay with OVCAR-5, > 100 µM (inactive); in the assay with TK-10, > 100 µM (inactive); in the assay on U-251, > 100 µM (inactive); with HOP-62, > 100 µM (inactive); in the assay on HOP-92, 55.7 µM (inactive). In addition, the GI50 with SF-539 was > 100 µM (inactive); with OVCAR-3, > 100 µM (inactive); in the assay on Hs-578T, 34.9 µM (inactive); with CCRF-CEM it was > 100 µM (inactive); in the assay on HCT-116, > 100 µM (inactive); in the assay on SW-620, > 100 µM (inactive). Besides, the GI50 in the assay with A549 and with Malme-3M was > 100 µM (inactive) each time.
On to `C=C(C)CNCC(=C)C.Oc1c(Cl)c(Cl)c(Cl)c(Cl)c1Cl`, for which the GI50 is 17.9 µM (inactive) in the assay with EKVX; 20.2 µM (inactive) in the assay with SN12C; 23.7 µM (inactive) in the assay on MDA-MB-435; 18.7 µM (inactive) with UACC-62; 26.6 µM (inactive) with SR; 22.1 µM (inactive) with IGROV-1. Further, the GI50 is 15.5 µM (inactive) with MDA-MB-231; 17.1 µM (inactive) in the assay on OVCAR-5; > 100 µM (inactive) in the assay on TK-10; 17.9 µM (inactive) with U-251; 22 µM (inactive) with HOP-62; 24.4 µM (inactive) in the assay on HOP-92. Moreover, the GI50 with SF-539 was 17.6 µM (inactive); in the assay with OVCAR-3 it was 11 µM (inactive); with Hs-578T it was 35.6 µM (inactive); in the assay with CCRF-CEM, 26.4 µM (inactive); in the assay on HCT-116 it was 16.4 µM (inactive); with SW-620, 31.1 µM (inactive). The GI50 was 27.9 µM (inactive) with A549 and 17.4 µM (inactive) with Malme-3M.
For `Cc1cc(C)c2c(=O)n(CC(O)CN(Cc3ccccc3)CC(O)Cn3sc4nc(C)cc(C)c4c3=O)sc2n1` (stereo not given), the GI50 with EKVX was 22.2 µM (inactive); in the assay on SN12C it was 18.1 µM (inactive); with MDA-MB-435, 17 µM (inactive); in the assay on UACC-62, 16.9 µM (inactive); in the assay on SR, 8.99 µM (inactive); in the assay with IGROV-1, 17.7 µM (inactive). In addition, the GI50 in the assay with MDA-MB-231 was 17.7 µM (inactive); in the assay with OVCAR-5, 20.1 µM (inactive); in the assay on TK-10, 17.4 µM (inactive); with U-251, 16.9 µM (inactive); with HOP-62, 14.4 µM (inactive); in the assay with HOP-92, 17.2 µM (inactive). In addition, the GI50 was 17.7 µM (inactive) in the assay on SF-539; 16.2 µM (inactive) in the assay with OVCAR-3; 18.9 µM (inactive) with Hs-578T; 6.05 µM (inactive) with CCRF-CEM; 17.3 µM (inactive) in the assay on HCT-116; 32 µM (inactive) in the assay on SW-620. Also, the results for the GI50 in the assay on A549 and with Malme-3M were 19.9 µM (inactive) and 14.3 µM (inactive), respectively.
In the case of `O=c1cc(N2CCOCC2)[nH]c(=O)n1-c1cccc(C(F)(F)F)c1`, the GI50 in the assay on EKVX, in the assay on SN12C, in the assay on MDA-MB-435, with UACC-62, in the assay on SR and with IGROV-1 was > 100 µM (inactive) throughout. Moreover, the GI50 was 20.7 µM (inactive) in the assay with MDA-MB-231; > 100 µM (inactive) with OVCAR-5; > 100 µM (inactive) with TK-10; 64.7 µM (inactive) in the assay with U-251; > 100 µM (inactive) in the assay on HOP-62; > 100 µM (inactive) with HOP-92. Besides, the GI50 with SF-539, in the assay with OVCAR-3, in the assay with Hs-578T, with CCRF-CEM, in the assay on HCT-116 and in the assay on SW-620 was > 100 µM (inactive) in each case. Further, the GI50 in the assay on A549 and in the assay on Malme-3M was > 100 µM (inactive) in each case.
As to `Sc1cnnc2ccc(Br)cc12`, the GI50 in the assay with EKVX is 22.5 µM (inactive); with SN12C, 69.5 µM (inactive); in the assay on MDA-MB-435, 27.4 µM (inactive); in the assay with UACC-62, 32.3 µM (inactive); in the assay with SR, 52 µM (inactive); with IGROV-1, 48.1 µM (inactive). Further, the GI50 with MDA-MB-231 is > 100 µM (inactive); with OVCAR-5, > 100 µM (inactive); with TK-10 it was 38.6 µM (inactive); in the assay with U-251, 38.7 µM (inactive); with HOP-62, > 100 µM (inactive); with HOP-92 it was 42.7 µM (inactive). Besides, the GI50 with SF-539 is 33 µM (inactive); with OVCAR-3 it was 30.3 µM (inactive); in the assay on Hs-578T, 57.3 µM (inactive); in the assay on CCRF-CEM, 36.9 µM (inactive); in the assay with HCT-116, 86.1 µM (inactive); in the assay with SW-620 it was > 100 µM (inactive). Further, the GI50 with A549 is 36.1 µM (inactive); in the assay on Malme-3M it was 24.7 µM (inactive).
Consider `COc1cc2c(cc1OC)-c1cc3cc(OC)c(OC)cc3c(=O)n1CC2`, for which the GI50 was 28.8 µM (inactive) in the assay with EKVX; 14.6 µM (inactive) with SN12C; 31.6 µM (inactive) in the assay on MDA-MB-435; 5.35 µM (inactive) with UACC-62; 2.07 µM (inactive) in the assay with SR; 4.91 µM (inactive) in the assay on IGROV-1. Moreover, the GI50 in the assay with MDA-MB-231 is 14.8 µM (inactive); with OVCAR-5 it was > 62.2 µM (inactive); in the assay with TK-10, 8.07 µM (inactive); in the assay with U-251 it was 17.3 µM (inactive); in the assay on HOP-62 it was 6.5 µM (inactive); in the assay with HOP-92 it was 2.34 µM (inactive). The GI50 with SF-539 was 6.12 µM (inactive); with OVCAR-3 it was 15.7 µM (inactive); with Hs-578T it was 6 µM (inactive); in the assay with CCRF-CEM, 3.21 µM (inactive); with HCT-116, 16.3 µM (inactive); with SW-620, 9.51 µM (inactive). Moreover, the GI50 in the assay with A549 was 41.2 µM (inactive); in the assay on Malme-3M it was 8.04 µM (inactive).

(Values after ChEMBL document CHEMBL1201862, “PubChem BioAssay data set” (2004).)
